Data reported in PubChem BioAssay (NCI).
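Cultured in 96-well plates, cells were exposed to test compound for 48 hours across five concentrations. TGI: total growth inhibition.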

What was measured:
Experiment in all cases: NCI tumour cell line growth inhibition, 48 h
[1] = tested on: NCI-H460 lung
[2] = tested on: HL-60(TB) leukemia
[3] = tested on: TK-10 renal
[4] = tested on: HOP-18 NSCLC
[5] = tested on: M19-MEL melanoma
[6] = tested on: KM20L2 colon
[7] = tested on: SNB-78 CNS
[8] = tested on: DMS 114 small cell lung
[9] = tested on: DMS 273 small cell lung
[10] = tested on: LXFL 529 NSCLC

## CCCCCCCCCCCCCCCCNc1ccc2c(c1)OCCOCCOCCOCCO2
[1]
  TGI: 10.7 µM
[2]
  TGI: 6.16 µM
[3]
  TGI: 25.7 µM

## CN(C)c1ccc(/C=C2\N=C(c3ccccc3)N(/N=C3\C(=O)Nc4ccccc43)C2=O)cc1
[1]
  TGI: > 100 µM
[2]
  TGI: > 100 µM
[3]
  TGI: > 100 µM

## COC(=O)C(CCSc1ccccc1)C(=O)OC
[1]
  TGI: > 100 µM
[2]
  TGI: > 100 µM

## Cc1ccc(Cc2nn(C)c(=O)n2-n2cccc2)cc1
[1]
  TGI: > 100 µM
[3]
  TGI: > 100 µM

## CSc1n[nH]c2n[nH]c(C)c12
[1]
  TGI: > 100 µM
[2]
  TGI: > 100 µM
[3]
  TGI: > 100 µM

## CC(=O)NC(CCCOC(C)=O)C(=O)NC(CCCOC(C)=O)C(=O)NC(CCCOC(C)=O)C(=O)NC(Cc1ccc([N+](=O)[O-])cc1)C(=O)NCC(=O)OCc1ccccc1 (centres undefined)
[1]
  TGI: > 100 µM
[3]
  TGI: > 100 µM

## Cc1ccc(S(=O)(=O)c2ccsc2NC(=O)c2ccccc2)cc1
[1]
  TGI: > 100 µM
[3]
  TGI: > 100 µM

## O=C1NCC2(CCNCC2)N1
[1]
  TGI: > 100 µM
[2]
  TGI: > 100 µM
[3]
  TGI: > 100 µM

## O=C1CSC(c2ccccc2[N+](=O)[O-])N1c1ccc(-n2c(-c3ccccc3)nc3ccccc3c2=O)cc1 (centres undefined)
[1]
  TGI: > 100 µM
[2]
  TGI: > 100 µM
[3]
  TGI: > 100 µM

## C=CCOCn1ccc(NC(=O)c2ccccc2)nc1=O
[1]
  TGI: > 100 µM
[2]
  TGI: > 100 µM
[3]
  TGI: > 100 µM

## CC(=O)O[C@]12CCCCC1C1(O)C(O)CCCC[C@H]12 (some centres undefined)
[4]
  TGI: > 100 µM
[5]
  TGI: > 100 µM
[6]
  TGI: > 100 µM
[1]
  TGI: > 100 µM
[7]
  TGI: > 100 µM
[2]
  TGI: > 100 µM
[8]
  TGI: > 100 µM
[3]
  TGI: > 100 µM
[9]
  TGI: > 100 µM
[10]
  TGI: > 100 µM

## Cc1ccc(C2SC(N)=Nc3c2c(C)nn3C(=O)c2ccc(Cl)cc2)cc1 (centres undefined)
[1]
  TGI: > 10 µM
[2]
  TGI: > 10 µM
[3]
  TGI: > 10 µM

## COC(=O)CCSC1=CC(=O)c2nc3ccccc3c3ccnc1c23
[1]
  TGI: 41.3 µM
[2]
  TGI: > 24 µM
[3]
  TGI: 18.9 µM

## COC(=O)c1c2c(cc3c1CC1(C3)Cc3ccc4c(c3C1=O)CCC4)CCC2 (centres undefined)
[1]
  TGI: > 100 µM
[2]
  TGI: > 28.3 µM
[3]
  TGI: > 35.3 µM

## C=CCN1C[C@@H](C)N([C@@H](c2ccccc2)c2ccc(C(=O)N(CC)CC)cc2)C[C@@H]1C
[2]
  TGI: > 100 µM

## COc1ccc(/C(Cl)=C(\CNc2ccccn2)c2ccccc2)cc1OC
[1]
  TGI: > 100 µM
[2]
  TGI: > 100 µM
[3]
  TGI: > 100 µM

## C[N+]1(CCCC[N+]2(C)CCCCCCC2)CCCCCCC1
[1]
  TGI: > 100 µM
[2]
  TGI: > 100 µM
[3]
  TGI: > 100 µM

## O=C(O)c1nc2cc(C(F)(F)F)ccc2[nH]c1=O
[1]
  TGI: > 100 µM
[2]
  TGI: > 100 µM
[3]
  TGI: > 100 µM

## N#Cc1c(-c2ccccc2)c(C#N)c(=S)n(C2OCC(O)C(O)C2O)c1N (centres undefined)
[1]
  TGI: > 100 µM
[2]
  TGI: > 100 µM
[3]
  TGI: > 100 µM

## COc1ccc2[nH]cc(CN3CCC(CO)(c4ccccc4)CC3)c2c1
[1]
  TGI: > 100 µM
[2]
  TGI: 48.5 µM
[3]
  TGI: > 100 µM

## O=c1c2ccccc2n2n1Cc1ccccc1C2
[1]
  TGI: > 100 µM
[2]
  TGI: > 100 µM
[3]
  TGI: > 100 µM
